Experimental data published in ChEMBL document CHEMBL1201862, “PubChem BioAssay data set” (2004).
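Tested at 5 concentrations; 48 h exposure; 96-well plates; endpoints linearly interpolated, else capped at highest concentration. GI50: concentration for 50% inhibition of growth.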 Calls of active or inactive are those of the source. Cut-off read from the data, not from the text of the source: active = GI50 up to about 1.1 µM and inactive = higher.

How the values were obtained:
Assay in all cases: inhibition of tumour cell growth, NCI panel, 48 h
TK-10 = test system: TK-10
MCF7 = test system: MCF7
T47D = test system: T47D
HOP-92 = test system: HOP-92
NCI/ADR-RES = test system: NCI/ADR-RES
A498 = test system: A498
NCI-H522 = test system: NCI-H522
RXF 393 = test system: RXF 393
SR = test system: SR
ACHN = test system: ACHN
Hs-578T = test system: Hs-578T
M14 = test system: M14
PC-3 = test system: PC-3
BT-549 = test system: BT-549
MDA-MB-231 = test system: MDA-MB-231
MDA-N = test system: MDA-N
DU-145 = test system: DU-145
SNB-75 = test system: SNB-75
SF-539 = test system: SF-539

Structure (SMILES)	GI50 (TK-10)	GI50 (MCF7)	GI50 (T47D)	GI50 (HOP-92)	GI50 (NCI/ADR-RES)	GI50 (A498)	GI50 (NCI-H522)	GI50 (RXF 393)	GI50 (SR)	GI50 (ACHN)	GI50 (Hs-578T)	GI50 (M14)	GI50 (PC-3)	GI50 (BT-549)	GI50 (MDA-MB-231)	GI50 (MDA-N)	GI50 (DU-145)	GI50 (SNB-75)	GI50 (SF-539)
O=C1Oc2ccc([N+](=O)[O-])cc2N/C1=C\C(=O)c1ccccc1	25.1 µM (inactive)	> 100 µM (inactive)	97.5 µM (inactive)	> 100 µM (inactive)	> 100 µM (inactive)	> 100 µM (inactive)	76.2 µM (inactive)	> 100 µM (inactive)	74.1 µM (inactive)	> 100 µM (inactive)	> 100 µM (inactive)	> 100 µM (inactive)	72.4 µM (inactive)	> 100 µM (inactive)	51.8 µM (inactive)	> 100 µM (inactive)	> 100 µM (inactive)	80 µM (inactive)	
CCOC(=O)C[C@@H]1C2(C=C[C@@]13CO3)OCC(C)(C)CO2	> 100 µM (inactive)	> 100 µM (inactive)	> 100 µM (inactive)	> 100 µM (inactive)	> 100 µM (inactive)	> 100 µM (inactive)		> 100 µM (inactive)	> 100 µM (inactive)		> 100 µM (inactive)	> 100 µM (inactive)	> 100 µM (inactive)	> 100 µM (inactive)	> 100 µM (inactive)	> 100 µM (inactive)	> 100 µM (inactive)	> 100 µM (inactive)	> 100 µM (inactive)
COc1cc2cc(C(=O)N3CC(CCl)c4c3cc(N(C)C)c3ccccc43)[nH]c2c(OC)c1OC (configuration not stated)	0.0108 µM (active)	< 0.01 µM (active)	< 0.01 µM (active)	0.0417 µM (active)	< 0.01 µM (active)	0.0123 µM (active)	< 0.01 µM (active)	0.0137 µM (active)	< 0.01 µM (active)	< 0.01 µM (active)	0.0199 µM (active)	< 0.01 µM (active)	< 0.01 µM (active)	0.103 µM (active)	0.0378 µM (active)	0.0169 µM (active)	< 0.01 µM (active)	< 0.01 µM (active)	0.0131 µM (active)
O=c1ccn(CC2(CO)CC(Cc3ccccc3)C2)c(=O)[nH]1 (configuration not stated)	> 100 µM (inactive)	> 100 µM (inactive)	> 100 µM (inactive)		> 100 µM (inactive)	> 100 µM (inactive)	> 100 µM (inactive)	> 100 µM (inactive)	> 100 µM (inactive)	> 100 µM (inactive)	> 100 µM (inactive)		> 100 µM (inactive)	> 100 µM (inactive)	> 100 µM (inactive)	> 100 µM (inactive)	> 100 µM (inactive)	> 100 µM (inactive)	> 100 µM (inactive)
Cc1ccc2c(O)cc(-c3cc(C)sc3C)nc2n1	25.1 µM (inactive)	2.18 µM (inactive)	2.67 µM (inactive)	17.9 µM (inactive)	1.62 µM (inactive)	4.78 µM (inactive)	2.07 µM (inactive)	2.81 µM (inactive)	0.55 µM (active)	8.13 µM (inactive)	2.47 µM (inactive)	3.2 µM (inactive)	2.55 µM (inactive)	8.87 µM (inactive)	10.4 µM (inactive)	0.455 µM (active)	3.99 µM (inactive)	2.9 µM (inactive)	2.3 µM (inactive)
[N-]=[N+]=Nc1c(C=O)c(=O)n2c3c(cccc13)CCC2	4.74 µM (inactive)	2.75 µM (inactive)	4.86 µM (inactive)	2.15 µM (inactive)	7.76 µM (inactive)	13.6 µM (inactive)	2.13 µM (inactive)	1.76 µM (inactive)	1.1 µM (active)	3.44 µM (inactive)	15.3 µM (inactive)	1.95 µM (inactive)	12.1 µM (inactive)	2.65 µM (inactive)	11.3 µM (inactive)	5.81 µM (inactive)	5.15 µM (inactive)	14.2 µM (inactive)	16.1 µM (inactive)
COc1cc(C)cc2c1C(=O)C(NC(C)=O)=CC2=O	> 100 µM (inactive)	67.1 µM (inactive)	59.3 µM (inactive)	99.8 µM (inactive)	> 100 µM (inactive)	> 100 µM (inactive)	> 100 µM (inactive)	> 100 µM (inactive)	55.1 µM (inactive)	> 100 µM (inactive)	55.1 µM (inactive)	> 100 µM (inactive)	> 100 µM (inactive)	> 100 µM (inactive)	98.4 µM (inactive)	18.1 µM (inactive)	> 100 µM (inactive)	45.7 µM (inactive)	> 100 µM (inactive)
Oc1ccccc1-c1nn2c(CCCCCCCCc3nnc4sc(-c5ccccc5O)nn34)nnc2s1	37.2 µM (inactive)	11.1 µM (inactive)	4.9 µM (inactive)	19.1 µM (inactive)	12 µM (inactive)	14.5 µM (inactive)	13.9 µM (inactive)	10.2 µM (inactive)	3.93 µM (inactive)	12 µM (inactive)	8.57 µM (inactive)	11.2 µM (inactive)	26.5 µM (inactive)	24.2 µM (inactive)	17.3 µM (inactive)	4.58 µM (inactive)	18 µM (inactive)	5.94 µM (inactive)	8.53 µM (inactive)
O=C1Cc2c(-c3ccccc3)cc(-c3cccc(Cl)c3)nc2-c2ccccc2N1	1.49 µM (inactive)	2.22 µM (inactive)	2.05 µM (inactive)	1.34 µM (inactive)	2.05 µM (inactive)	4.82 µM (inactive)	1.05 µM (active)	2.15 µM (inactive)	37.9 µM (inactive)		2.09 µM (inactive)	8.09 µM (inactive)	5.97 µM (inactive)	6.61 µM (inactive)	1.15 µM (inactive)	6.82 µM (inactive)	2.61 µM (inactive)	1.77 µM (inactive)	6.34 µM (inactive)
COC(=O)C1(c2ccc(N(C)C)cc2OC)CCCN(C(=O)Oc2ccccc2[N+](=O)[O-])CCc2c1[nH]c1ccccc21 (configuration not stated)	> 100 µM (inactive)	> 100 µM (inactive)	> 100 µM (inactive)	> 100 µM (inactive)	> 100 µM (inactive)	> 100 µM (inactive)	> 100 µM (inactive)	> 100 µM (inactive)	> 100 µM (inactive)		> 100 µM (inactive)	> 100 µM (inactive)	> 100 µM (inactive)	> 100 µM (inactive)	> 100 µM (inactive)	> 100 µM (inactive)	> 100 µM (inactive)	> 100 µM (inactive)	> 100 µM (inactive)
O=C1c2ccccc2-c2nnc(-c3ccc([N+](=O)[O-])cc3)cc21	> 10 µM (inactive)	> 10 µM (inactive)	> 10 µM (inactive)	> 10 µM (inactive)	> 10 µM (inactive)	> 10 µM (inactive)	> 10 µM (inactive)	> 10 µM (inactive)	> 10 µM (inactive)	> 10 µM (inactive)	> 10 µM (inactive)	> 10 µM (inactive)	> 10 µM (inactive)	> 10 µM (inactive)	> 10 µM (inactive)	> 10 µM (inactive)	> 10 µM (inactive)	> 10 µM (inactive)	> 10 µM (inactive)
